Test results from PMC4843824 (Nature chemistry, 2016).

Key:
Test in all cases: differential UV-vis titration
[1] = molecular target: T1, TxtE (Streptomyces scabiei, UniProt C9ZDC6, H176W); type: binding
T1 sequence (C9ZDC6 1-406 H176W): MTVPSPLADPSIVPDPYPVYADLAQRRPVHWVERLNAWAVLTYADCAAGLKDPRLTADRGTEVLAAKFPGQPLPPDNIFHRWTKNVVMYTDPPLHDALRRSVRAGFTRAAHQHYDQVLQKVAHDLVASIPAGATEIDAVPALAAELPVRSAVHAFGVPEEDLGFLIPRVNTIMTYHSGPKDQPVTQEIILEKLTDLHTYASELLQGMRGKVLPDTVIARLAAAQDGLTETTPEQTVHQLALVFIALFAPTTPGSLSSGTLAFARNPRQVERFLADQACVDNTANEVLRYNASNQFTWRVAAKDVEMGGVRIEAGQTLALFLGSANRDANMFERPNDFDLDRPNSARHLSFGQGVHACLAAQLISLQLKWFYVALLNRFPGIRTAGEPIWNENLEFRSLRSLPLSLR

[2] = molecular target: T2, TxtE (Streptomyces scabiei, UniProt C9ZDC6, H176F); type: binding
T2 sequence (C9ZDC6 1-406 H176F): T1 sequence (C9ZDC6 1-406 H176W)

[3] = molecular target: Virginiae_TxtE; type: binding, Streptomyces virginiae; details: read-out: Kd (μM)^b; 25 mM Tris pH 8
[4] = molecular target: T3, TxtE (Streptomyces scabiei, UniProt C9ZDC6, H176Y); type: binding
T3 sequence (C9ZDC6 1-406 H176Y): T1 sequence (C9ZDC6 1-406 H176W)

N[C@@H](Cc1c[nH]c2ccccc12)C(=O)O [L-tryptophan]
Kd [1]: 1.3 ± 0.1 µM | Kd [2]: 2.6 ± 0.1 µM | Kd [3]: 140 ± 6 µM | Kd [4]: 4.9 ± 0.3 µM
